Results on one compound are retold here after patent US10933145B2, “Compositions and methods for reducing the risk of radiocontrast-induced nephropathy” (UNIVERSITY OF PITTSBURGH—OF THE COMMONWEALTH SYSTEM OF …, priority 2016, dated 2021).

Assay [1] deals with NFκB activity in MDCK cells. The experiment in a line: NFκB activity in MDCK cells exposed to radiocontrast, with or without calcineurin inhibitor. As to conditions: MDCK cells treated with 16% radiocontrast; FIG. 4A. Format: cell-based, Canine. An excerpt: FIG. 4A-B. NFκB activity in MDCK cells exposed to increasing amounts of radiocontrast and treated with (A) FK506 (gray bar) or DMSO (as negative control, black bar) or (B) Cyclosporin A.
NFκB activity in MDCK cells exposed to increasing amounts of radiocontrast and treated with either FK506 (FIG. 4A) or cyclosporin A (FIG. 4B).

Assay [2] deals with NFAT activity in MDCK cells. Kind of assay: NFAT-luciferase reporter activity in MDCK cells. Format: cell-based, Canine. The conditions noted are these: 16 percent radiocontrast, 3 hours, MDCK cells infected with Ad-NFAT-luciferase; FIG. 2. As for the experimental part:
FIG. 2. NFAT (Nuclear Factor of Activated T-cells) activity in MDCK cells measured via NFAT-luciferase expression at increasing concentrations of radiocontrast. MDCK were engineered to contain a reporter for inflammatory NFAT activity. In particular, MDCK cells were infected with Ad-NFAT-luciferase and treated for 3 hours with […] (0-16%) of iohexol radiocontrast. NFAT activity in MDCK cells was measured via NFAT-luciferase expression.
Background: Reporter assays use an easily measured gene product as a stand-in for the process of interest.

SMILES strings stand for the structures.

With `CC(=O)N(CC(O)CO)c1c(I)c(C(=O)NCC(O)CO)c(I)c(C(=O)NCC(O)CO)c1I` (centres unmarked) [iohexol radiocontrast, iohexol], the “increase in NFκB activation” value in assay [1] was “approximately 5 fold”. The “NFAT activation relative to control” value in assay [2] was determined as 40 fold.
